Assay results: patent US10400263B2, “Tripeptide rhodamine compound” (Kingston Uninversity Higher Education Corporation, priority 2012, dated 2019)

Assays:
MRSA and MSSA = assay: LGX staphylocoagulase fluorescence assay, MRSA and MSSA together; format: cell-based, Staphylococcus aureus
Experimental: (§1) Each sample was rinsed liberally in sterile 1×PBS and varying concentrations of bacterial suspension from 10^0-10^6 were generated by serial dilution in 1×PBS. Additionally, bacterial cultures were furthermore maintained on nutrient agar to assess the coagulase status of the isolate.
(§2) To determine the effects of varying bacterial concentrations with respect to bacterial strains and concentrations of the compounds according to the present invention on staphylocoagulase activity, 100 and 50 μM solutions containing LGX were prepared in 1×PBS with the addition of 0.05 M Tris Buffer and 0.1 M NaCl to maintain a pH of 8.5 using LGX dissolved in MeOH so that final concentration of methanol was no more than 2.5%. Furthermore, an appropriate concentration (100 μM and 50 μM, respectively) of human prothrombin was added to the solution.
(§3) The plate reader used was a Fluostar Optima, and the plates used were Nunclon Surface 96 well plates. Positive controls for each experiment was a strain of MRSA, and the negative control for each experiment was a strain of E. coli, both of which were picked at random to ensure there was no bias within the data. A 1:1 ratio of the LGX solution with PBS was also assayed as “LGX alone” sample, which has been designated as a black line on the graphs below. n=3 cultures were assayed in each case.
(§4) Clinical isolates of Methicillin Resistant Staphylococcus Aureus (MRSA), Methicillin Sensitive Staphylococcus Aureus (MSSA), Staphylococcus Epidermidis, Eschericia coli and other staphyloccal species were cultured on nutrient agar prior to being grown overnight in nutrient broth under shaking conditions at 37° C. Each sample was rinsed liberally in sterile 1×PBS and varying concentrations of bacterial suspension from […] were generated by serial dilution in 1×PBS. Additionally, bacterial cultures were furthermore maintained on nutrient agar to assess the coagulase status of the isolate.
(§5) To determine the effects of varying bacterial concentrations with respect to bacterial strains and LGX concentrations on staphylocoagulase activity, 100 and 50 μM solutions of LGX were prepared in 1×PBS with the addition of 0.05 M Tris Buffer and 0.1 M NaCl to maintain a pH of 8.5 using LGX dissolved in MeOH so that final concentration of methanol was no more than 2.5%. Furthermore, an appropriate concentration (100 μM and 50 μM, respectively) of human prothrombin was added to the solution. 90 μl of LGX solution in addition to each respective bacterial isolate at varying concentrations was added to a microtitre plate. […] The plate reader used was a Fluostar Optima, and the plates used were Nunclon Surface 96 well plates.

S. epidermidis = assay: LGX staphylocoagulase fluorescence assay, S. epidermidis; format: cell-based, Staphylococcus Epidermidis; conditions: for fluorescence over the 6 hour time period: S. epidermidis, high and low concentrations
Experimental: as §1, §2
The plate reader used was a Fluostar Optima, and the plates used were Nunclon Surface 96 well plates. Positive controls for each experiment was a strain of MRSA, and the negative control for each experiment was a strain of E. coli, both of which were picked at random to ensure there was no bias within the data. A 1:1 ratio of the LGX solution with PBS was also assayed as “LGX alone” sample, which has been designated as a black line on the graphs below. n=3 cultures were assayed in each case. […]
To determine the effects of varying bacterial concentrations with respect to bacterial strains and LGX concentrations on staphylocoagulase activity, 100 and 50 μM solutions of LGX were prepared in 1×PBS with the addition of 0.05 M Tris Buffer and 0.1 M NaCl to maintain a pH of 8.5 using LGX dissolved in MeOH so that final concentration of methanol was no more than 2.5%. […] The plate reader used was a Fluostar Optima, and the plates used were Nunclon Surface 96 well plates.

MRSA = assay: LGX staphylocoagulase fluorescence assay, MRSA isolates; format: cell-based, Staphylococcus aureus
Experimental: as §1, §2, §3, §4, §5

## CC(C)[C@H](NC(=O)OC(C)(C)C)C(=O)N1CCC[C@H]1C(=O)N[C@@H](CCCNC(=N)N)C(=O)Nc1ccc2c(c1)Oc1cc(NC(=O)[C@H](CCCNC(=N)N)NC(=O)[C@@H]3CCCN3C(=O)[C@@H](NC(=O)OC(C)(C)C)C(C)C)ccc1C21OC(=O)c2ccccc21 (stereo partly drawn) [LGX, Rho-(Arg-Pro-Val-NHBoc)2]
MRSA and MSSA; 50 μM LGX, 10^2 cell concentration of MRSA and MSSA
  isolates failed to reach a fluorescence reading of 20,000 within 30 minutes: 20%
MRSA and MSSA; 50 μM LGX, 10^3 cell concentration of MRSA and MSSA
  isolates failed to reach a fluorescence reading of 20,000 within 30 minutes: 5%
MRSA and MSSA; 50 μM LGX, MRSA and MSSA 10^5, FIG. 13
  time for fluorescence to reach a maximum: approximately 3 hours
MRSA and MSSA; 50 μM LGX, MRSA and MSSA 10^6, FIG. 13
  fluorescence reading reached (almost instantaneous reaction): 65,000 RFU
MRSA and MSSA; 50 μM LGX, all concentrations of bacteria, MRSA and MSSA
  samples above 20,000 fluorescence units after 1 hour: more than 80%
MRSA and MSSA; 100 μM LGX, 10^3 cell concentration and above
  samples with a fluorescence reading greater than 20,000 within 30 minutes: 100%
MRSA and MSSA; 100 μM LGX, MRSA and MSSA 10^4 and 10^3, and MSSA 10^2, FIG. 14
  fluorescence reading reached (almost instantaneous reaction): 65,000 RFU
MRSA and MSSA; 100 μM LGX, MRSA and MSSA at 10^2, FIG. 12
  response compared with 100 and 500 μM coumarin system: superior response in terms of selectivity and speed
MRSA and MSSA; no culturing, fluorescence 525 nm (ex 488 nm)
  lowest bacterial concentration at which presence of bacteria is detected: 10^2
MRSA and MSSA; response at 10^2 Staphylococcus aureus units, 525 nm (ex 488 nm)
  sensitivity advantage over N-t-BOC-val-pro-arg-7-amido-4-methylcoumarin: several orders of magnitude (10^4 bacteria)
MRSA and MSSA; staphylothrombin assay for detection of MRSA and MSSA, estimate
  sensitivity relative to the existing commercial dye system: 10 times
S. epidermidis; 50 μM LGX, FIG. 13
  fluorescence over the 6 hour time period: no increase in fluorescence was observed
S. epidermidis; 100 μM LGX, FIG. 14
  fluorescence over the 6 hour time period: no increase in fluorescence was observed
S. epidermidis; S. EPIDERMIDIS
  LGX SYSTEM: −
MRSA; 50 μM LGX, MRSA 10^2
  samples failed to reach maximum fluorescence within the 6 hour time frame: 60%
  samples reaching the maximum reading of 65,000 RFU within 4 hours: 40%
MRSA; 50 μM LGX, MRSA 10^3
  samples failed to reach maximum fluorescence within the 6 hour time frame: 40%
  samples reaching the maximum reading of 65,000 RFU within 4 hours: 60%
MRSA; 50 μM LGX, MRSA 10^5
  samples failed to reach maximum fluorescence within 5 hours: 20%
  samples reaching the maximum reading of 65,000 RFU within 2 hours: 60%
MRSA; 50 μM LGX, MRSA 10^6
  samples failed to reach maximum: 10%
  samples reaching the maximum reading of 65,000 RFU within 2 hours: 90%
  time by which maximum fluorescence level was reached, all samples: ≤ 2 h
MRSA; 50 μM LGX, MRSA positive control at 10^6, 10^5 and 10^3
  time for fluorescence readings to reach a maximum: almost immediately or within an hour
MRSA; 50 μM LGX, MRSA positive control, lower concentrations
  time for fluorescence readings to reach a maximum: 6 h
MRSA; 100 μM LGX, MRSA 10^2
  samples achieving a fluorescence reading of 20,000 within 1 hour: 95%
  samples in which fluorescence reached its upper limits within 4 hours: 40%
MRSA; 100 μM LGX, MRSA 10^2, FIG. 14
  time for fluorescence to reach a maximum: approximately 3 hours
MRSA; 100 μM LGX, MRSA 10^3
  samples in which fluorescence reached its upper limits within 3 hours: 40%
MRSA; 100 μM LGX, MRSA 10^4
  MRSA reaching maximum fluorescence over the 6 hours time period: 90%
  samples in which fluorescence reached its upper limits within 2 hours: 50%
MRSA; 100 μM LGX, MRSA lower concentrations of 10^3 and 10^4 (so in the source)
  isolates failed to reach maximum fluorescence over 6 hours: 40%
MRSA; 100 μM LGX, MRSA positive control, all concentrations (10^4, 10^3 and 10^3 as printed)
  time for fluorescence to reach a maximum: ≤ 3 h
MRSA; MRSA, detection of coagulase positive samples
  LGX SYSTEM: +
